In patent US11045519B2, “Arginine-rich polypeptide compositions and methods of using same” (UNM Rainforest Innovations, priority 2017, dated 2021):
Where a SMILES comes first, the peptide text is derived from it. Where no end group is shown, it is not given here. The star is where a group is joined. Decanoyl = CCCCCCCCCC(=O)*; CH2Cl = ClC*

Tests used:
[1] = target: T1, recombinant His-furin (Homo sapiens, UniProt P09958); experiment: Furin cleavage of HPV16 L2 capsid protein (immunoblot); type: biochemical; settings: 30 μM, 3 nM His-furin, 2 h 37° C.
T1 construct: His
Method: FIG. 9. PolyR inhibits HPV16 L2 protein cleavage by furin and induces accumulation of internalized virus particles in late endosomal fraction. (A) Equal amount of HPV16 diluted in 50 μl furin assay buffer (1 mM CaCl2), 100 mM HEPES, 0.5% Triton X-100, 1 mM β-mercaptoethanol) was loaded into six tubes, […], in the presence of 1.3 μM furin inhibitor1 (Merck Millipore Corp., Burlington, Mass.), or 1 μM polyR. Samples were mixed with SDS-PAGE sample buffer and boiled before fractionation on 9% gel. Proteins were transferred onto PVDF membranes and after blocking, incubated with affinity-purified rabbit anti-HPV16 polyclonal antibody. Secondary donkey anti-rabbit horseradish peroxidase-coupled antibody was used for detection of HPV16 capsid proteins. (B) HaCaT cells grown on coverslips were incubated with HPV16 PsVs for one hour at 37° C. to initiate virus binding (and partial internalization) before adding 1 μM polyR and further incubated for seven hours. […]
Cleavage of the L2 minor capsid protein by the cellular pro-protein convertase, furin, is an essential step in infectious entry of HPVs. […] After two hours of incubation, HPV16 cleavage was assessed by immunoblotting using anti-HPV 16 polyclonal antibody. […]

[2] = test system: HPV16 pseudovirions (PsVs); experiment: HPV16 PsV luciferase infectivity assay, HaCaT cells pretreated with peptide; type: cell-based; settings: 24 h; for inhibition of HPV16 PsV infection: 6 μM, 30 min pretreatment of HaCaT cells, 300 vge/cell
Method: HaCaT cells were cultured in complete growing medium (CM; Dulbecco's modified Eagle's medium nutrient mixture F-12 HAM (Sigma-Aldrich, St. Louis, Mo.)) supplemented with 10% fetal bovine serum (FBS), amino acids (Sigma-Aldrich, St. Louis, Mo.), 2 mM L-glutamine, 100 U/ml penicillin and 1 μg/ml streptomycin (Sigma-Aldrich, St. Louis, Mo.), as previously described (Patterson et al., 2005. J Virol 79:6838-6847). Semi-confluent cells were pretreated for 30 minutes with arginine-rich peptides dissolved in CM (6 μM gp91dstat, gp91dstat (scramble), R9, and TAT, or 3 polyR) before the exposure to HaCaT cells and 300 vge/cell HPV16 pseudovirions (PsVs) packaging a luciferase reporter plasmid. Infectivity was scored after 24 hours of incubation at 37° C. (i.e., post infection) by Lumat LB9501 (Berthold Technologies GmbH & Co KG, Bad Wildbad, Germany) equipment, using the luciferase assay kit (Promega, Madison, Wis.) according to manufacturer's specification. Raw data were normalized to total cellular protein concentration. Graph summarizes triplicate treatments; error bars represent SEM.
Fifty percent inhibitory concentration (IC50) of HPV16 PsV infection of HaCaT cells by the compounds. For generation of an inhibitory concentration 50 (IC50) curves, cells were pretreated with the indicated concentration of arginine-rich peptides prior to HPV16 PsV exposure. Infectivity was scored after 24 hours of incubation at 37° C. and the data from two independent duplicate experiments were pooled and analyzed using non-linear regression (curve fit) function of PRISM software (GraphPad Software, Inc., LaJolla, Calif.).
Semi-confluent HaCaT cells maintained in CM, were pretreated for one hour with PrS dissolved in CM at the 0-5.8 μM concentrations before exposure to HPV16 PsVs (350 vge/cell). Infectivity was scored after 24 hours of incubation at 37° C. using a luminometer (Lumat LB9501, Berthold GmbH & Co., Bad Wildbad, Germany) and luciferase assay (Promega, Madison, Wis.) according to manufacturer's specification. Raw data were normalized to total cellular protein concentration.
For generation of an inhibitory concentration 50 (IC50) curve for PrS inhibition, data from two independent duplicate experiments was pooled and analyzed using the non-linear regression (curve fit) function of PRISM (GraphPad Software, Inc., La Jolla, Calif.).
3 μM PrS incubated for one hour at room temperature with 2 mg/ml high or low molecular weight HA in CM, prior to the addition to HaCaT cells. 350 vge/cell HPV16 PsVs were used for infection of cells in the presence or absence of PrS or HA:PrS complex. Infection was scored after 24 hours as described in FIG. 12.
HaCaT cells were pretreated with 6 μM concentrations of gp91dstat, gp91dstat (scramble), R9, or TAT, or 3 μM polyR. After 30 minutes of incubation at 37° C., cells were infected with HPV16 pseudovirions (PsVs) at a dose of 300 viral genome equivalents (vge)/cell, and the relative infectivity was quantified after 24 hours compared to infection in untreated cells (FIG. 1). Each treatment was performed in triplicate.
To evaluate the anti-HPV activity of PrS, HaCaT cells, a keratinocyte-derived cell line, was used as a model for analysis of HPV infection. […]
Infections were initiated using Luciferase-expressing HPV16 PsVs that were produced, isolated, and quantified as described previously (Surviladze et al., 2012. PLoS Pathogens 8: e1002519; Campos S K and Ozbun M A, 2009. PloS One 4:e4463). […]

[3] = test system: HPV16 PsVs; experiment: HPV16 PsV binding to HaCaT cells at 4° C. (L1 immunoblot / immunofluorescence); type: cell-based; settings: 4° C. 1 h
Method: FIG. 4. PolyR treatment of host cells inhibits HPV16 binding to cells. (A) Confluent HaCaT cell monolayers were treated with 1 μM polyR (in CM) for 30 minutes, before adding 100 vge/cell HPV16 PsVs, and incubated at 4° C. for one hour (to promote binding but prevent virus internalization). After washing out of unbound virus, cells were lysed (25 mM Tris pH7.5, 150 mM NaCl, 1% Triton-X100 supplemented with protease inhibitors) and centrifuged at 16,000×g for 10 minutes. Protein concentrations in supernatant were measured using the Bradford method (Bio-Rad Laboratories, Inc., Hercules, Calif.). Samples were boiled in SDS-containing sample buffer, and aliquots containing equal amount of protein ([…] to 200 μg) separated by SDS-polyacrylamide gel electrophoresis (SDS-PAGE), using 10% gel. Proteins were transferred onto polyvinylidene difluoride (PVDF) membranes and subjected to analysis using anti-HPV16 L1 primary antibody (Camvir-1, sc-47699, Santa Cruz Biotechnology, Inc., Dallas, Tex.;1:5000 dilution) for detection of HPV16 major capsid protein, L1. Proteins were visualized by enhanced chemiluminescence (SUPERSIGNAL West Pico Chemiluminescent Substrate, Thermo Fisher Scientific, Inc., Waltham, Mass.) and exposed to film (Phenix Research Products, Candler, N.C.). (B) Immunofluorescence assays were performed essentially as described previously (Surviladze et al., 2012. PLoS Pathogens 8:e1002519). HaCaT cells were grown on coverslips at approximately 50% confluence and treated with 3 μM polyR for 30 minutes at 37° C. before the addition of 1000 vge of HPV16 PsVs per coverslip. Cells were incubated for one hour at 4° C. and washed several times with PBS, before the fixation with 4% paraformaldehyde (PFA). BSA-blocked cells were incubated with rabbit polyclonal HPV16 antibody (antibody was affinity-purified from rabbit anti-HPV VLP antisera). PBS-washed slides were incubated with donkey AF488-conjugated anti-rabbit IgG secondary antibody; phalloidin-rhodamine (Cytoskeleton, Inc., Denver, Colo.) was used for actin staining. After extensive washing with PBS, cells were mounted in Gold Antifade and immunofluorescent (IF) images were captured by confocal photo-microscopy.
(§1) (A) HPV16 PsVs were bound to HaCaT cells (one hour at 4° C.), before the addition of […]. After a one-hour incubation at 4° C., unbound virus was washed out, cells were lysed and analyzed for the content of HPV L1 protein. (B) HaCaT cells were exposed to HPV 16 PsV at 4° C. in the absence of polyR, simultaneously with polyR (0 h), or one hour after polyR treatment (+1 h). After extensive washing with PBS, cells were lysed and analyzed for the content of HPV16 L1 protein.
FIG. 16. PrS pretreated cells binding of HPV16. Confluent HaCaT cell monolayers were treated with 1 μM PrS (in CM) before the addition of 200 vge/cell HPV16 PsVs and incubated at 4° C. for one hour (conditions to prevent virus internalization). After washing out of unbound virus, cells were lysed (25 mM Tris pH7.5, 150 mM NaCl, 1% Triton-X100 supplemented with protease inhibitors) and centrifuged at 16,000×g for 10 minutes. Protein concentrations in supernatant were measured using the Bradford method (Bio-Rad Laboratories, Inc., Hercules, Calif.). Samples were boiled in SDS-containing sample buffer, and aliquots containing equal amount of protein (˜50 μg to 200 μg) separated by SDS-polyacrylamide gel electrophoresis (SDS-PAGE) using 10% gel. […]

[4] = test system: HPV16 PsVs; experiment: Direct pre-incubation of HPV16 PsVs with peptide, dilution below IC50, then infection of HaCaT cells; type: cell-based; settings: 1 μM, 1 h 37° C., diluted below IC50, HaCaT cells 24 h
Method: FIG. 3. […] HPV16 PsVs were incubated with 0.3 μM polyR for one hour at 37° C. The virus-polyR mixture was diluted with CM to reduce the polyR concentration below the IC50 value prior to incubation with HaCaT cells for 24 hours (HPV16-polyR). The control included untreated HPV16 PsVs (HPV16) added to HaCaT cells. Infection was measured after 24-hour incubation.
FIG. 15. Direct interaction of PrS to HPV16 PsVs. HPV16 PsVs were incubated with 1 μM PrS or HA:PrS complex for one hour at 37° C. Virus-PrS/or HA:PrS mixture was diluted with CM in order to reduce the PrS concentration below the IC50 value, and incubated with HaCaT cells for 24 hours. The control included untreated HPV16 PsVs. Infection was measured after 24 hours incubation as described in FIG. 12.
Typically, direct interaction of cationic inhibitors with the viral capsids of non-enveloped viruses (including HPV) is sufficient for antiviral activity. To determine whether polyR inhibited HPV16 infectivity by direct interaction with viral capsids, HPV16 PsVs were incubated with […] for one hour at 37° C. The virus-polyR mixture was diluted 1500-fold to reduce the polyR concentration below the IC50 value, then incubated with HaCaT cells. The control included cells exposed to HPV PsVs that were not treated with polyR. […]

[5] = test system: HPV16 PsVs; experiment: Dissociation of cell-bound HPV16 PsVs from HaCaT cells (L1 immunoblot); type: cell-based; settings: 5 μM added to HPV-bound HaCaT cells, 1 h 4° C.
Method: as §1
FIG. 19. […] HPV16 PsVs were bound to HaCaT cells (one hour in cold), before the addition of 5 μM PrS. After a one-hour incubation at 4° C., unbound virus was washed out, cells were lysed, and HPV L1 protein content was measured as described in FIG. 16.
To determine whether polyR could cause HPV16 dissociation from cells, HPV16 PsVs were bound to HaCaT cells for one hour at 4° C. After washing away unbound virus, HPV-bound cells were incubated with 3 μM polyR for one hour at 4° C.; control cells were untreated. Cells were lysed and analyzed for HPV L1 protein content. […]
The post-attachment inhibitory effects of PrS could be due the displacement of capsids from the cell surface. […] After a one-hour incubation at 4° C., unbound virus was washed out, cells were lysed, and the HPV L1 protein content was analyzed.

T1 sequence (P09958 108-794): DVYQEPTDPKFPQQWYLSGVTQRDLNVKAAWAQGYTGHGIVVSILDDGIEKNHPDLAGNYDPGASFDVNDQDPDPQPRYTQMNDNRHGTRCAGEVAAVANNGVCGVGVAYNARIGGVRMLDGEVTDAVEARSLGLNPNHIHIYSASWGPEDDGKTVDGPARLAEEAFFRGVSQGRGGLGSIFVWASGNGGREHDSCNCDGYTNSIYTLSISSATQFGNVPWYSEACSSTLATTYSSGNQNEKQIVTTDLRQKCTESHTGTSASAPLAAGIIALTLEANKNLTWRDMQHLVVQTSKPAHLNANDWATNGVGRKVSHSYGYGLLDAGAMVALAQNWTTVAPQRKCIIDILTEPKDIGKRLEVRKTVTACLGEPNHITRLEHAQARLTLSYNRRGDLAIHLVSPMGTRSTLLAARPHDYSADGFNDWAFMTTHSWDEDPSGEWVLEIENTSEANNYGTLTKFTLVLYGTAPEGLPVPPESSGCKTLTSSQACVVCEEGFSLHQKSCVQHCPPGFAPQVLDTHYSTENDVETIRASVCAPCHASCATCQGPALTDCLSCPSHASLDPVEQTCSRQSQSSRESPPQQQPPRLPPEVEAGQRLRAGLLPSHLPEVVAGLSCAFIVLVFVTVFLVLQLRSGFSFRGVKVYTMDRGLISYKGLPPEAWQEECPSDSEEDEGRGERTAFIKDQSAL

CCCCCCCCCC(=O)N[C@@H](CCCN=C(N)N)C(=O)N[C@H](C(=O)N[C@@H](CCCCN)C(=O)N[C@@H](CCCN=C(N)N)C(=O)CCl)C(C)C [FI, reference compound] (Decanoyl-RVKR-CH2Cl)
furin cleavage of L2 capsid protein [1]: inhibited cleavage of the L2 capsid protein

N=C(N)NCCC[C@H](NC(=O)[C@H](CCCNC(=N)N)NC(=O)[C@H](CCCNC(=N)N)NC(=O)[C@H](CCCNC(=N)N)NC(=O)[C@H](CCCNC(=N)N)NC(=O)[C@H](CCCNC(=N)N)NC(=O)[C@H](CCCNC(=N)N)NC(=O)[C@H](CCCNC(=N)N)NC(=O)[C@@H](N)CCCNC(=N)N)C(=O)O [R9, arginine nonapeptide]
inhibition of HPV16 PsV infection [2]: 66%

TAT: YGRKKRRQRRR; arginine-rich fragment of the HIV transactivator protein
inhibition of HPV16 PsV infection [2]: 44%

protamine sulfate (MPRRRRSSSRPVRRRRRPRVSRRRRRRGGRRRR; also: sulfate salt; listed as Oncorhynchus keta) [PrS, sulfate form of salmon protamine, FDA approved arginine-rich polypeptide, reference compound]
HPV16 binding to pretreated cells (L1 Western blot) ([3]; 1 μM in CM, 200 vge/cell): almost completely blocked HPV16 binding
inhibition of HPV16 binding at acidic conditions ([3]; pH 4.5, 2 μM PrS (complex: 0.1% HMW HA:2 μM PrS)): 60%
IC50 ([2]; 1 h pretreatment, 350 vge/cell, read-out: IC50 of HPV16 infection in HaCaT cells): ~100 nM
effect of pre-incubation of HPV16 PsVs on infection [4]: does not inhibit infection
release of HPV16 from membrane [5]: did not induce HPV16 release from membrane
